Laboratory results as given in ChEMBL document CHEMBL3430912, “GSK Tres Cantos Anti-Kinetoplastid Screening (TCAKS) Data”.

How the values were obtained:
Trypanosoma cruzi [1] = test: GSK_TCAKS: pIC50 Trypanosoma cruzi viability assay using beta-GAL activity. This assay was run at single shot at 5uM compound concentration per well. The biological reagents consisted of NIH-3T3 host cells and trypomastigotes parasitic cells; both cell types were set to a 3.3 * 10^5 cells/mL dilution in assay DMEM by means of a CASY cell counter device using a 60um capillary. 6 uL of the mixture were dispensed per well (about 1 * 10^3 host-cells and 1 * 10^3 parasites) with a Multidrop Combi dispenser. […] In all wells, the percentage of DMSO never exceeded 0.5%. Plates incubated for four days at 37C, 5% CO2. The substrate used for the assay fluorescence intensity (FLINT) readout was resorufin-beta-D-galactopiranoside (Sigma-Aldrich) at 5uM per well. It was diluted in PBS supplemented with the soft detergent Igepal (Fluka).; format: functional, organism-based, Mus musculus; conditions: Tulahuen, NIH3T3
Trypanosoma cruzi [2] = test: (§1) GSK_TCAKS: pIC50 Trypanosoma cruzi Imaging: Infected Cells. […] Cells were then washed once with PBS before infection. T. cruzi trypomastigotes, collected at days 5 to 8 after infection from LLC-MK2 parasite infected cultures, were allowed to swim out for 4h at 37C from a centrifuged pellet (2,500 rpm/10 min/room temperature). Trypomastigotes were then collected and counted in a CASY Cell Counter. Trypomastigotes, in supplemented DMEM, were added to H9c2 cultures in a multiplicity of infection of 1 and incubated for 18 h. Cells were washed once with PBS before incubation of the infected H9c2 monolayer with trypsin (Life-Technologies) to detach cells from the flask. Cells were counted in a CASY Cell Counter using a 150 um capillary and their density set at 5 * 10^4 cells per mL in supplemented assay DMEM. Infected H9c2 were dispensed into 384-well poly-lysine coated assay plates at 50uL per well using a Multidrop Combi dispenser. After seeding them, the plates were incubated at 37C, 5% CO2 for 72h. Cultures were then fixed and stained by addition of 50 uL of a solution containing 8% formaldehyde and 4 uM DRAQ5 DNA dye (BioStatus, UK) per well. […] Five images were collected per well for reliable statistical analysis. Automated image analysis was performed with a script developed on Acapella High Content Imaging and Analysis Software (PerkinElmer). Output: percentage of infected cells per well as a second infection marker.; format: functional, organism-based, Rattus norvegicus; conditions: H9c2, 4 h
Trypanosoma cruzi [3] = test: GSK_TCAKS: pIC50 Trypanosoma cruzi Imaging: Amastigotes/Cell. […] Cells were then washed once with PBS before infection. T. cruzi trypomastigotes, collected at days 5 to 8 after infection from LLC-MK2 parasite infected cultures, were allowed to swim out for 4h at 37C from a centrifuged pellet (2,500 rpm/10 min/room temperature). Trypomastigotes were then collected and counted in a CASY Cell Counter. Trypomastigotes, in supplemented DMEM, were added to H9c2 cultures in a multiplicity of infection of 1 and incubated for 18 h. Cells were washed once with PBS before incubation of the infected H9c2 monolayer with trypsin (Life-Technologies) to detach cells from the flask. Cells were counted in a CASY Cell Counter using a 150 um capillary and their density set at 5 * 10^4 cells per mL in supplemented assay DMEM. Infected H9c2 were dispensed into 384-well poly-lysine coated assay plates at 50uL per well using a Multidrop Combi dispenser. After seeding them, the plates were incubated at 37C, 5% CO2 for 72h. Cultures were then fixed and stained by addition of 50 uL of a solution containing 8% formaldehyde and 4 uM DRAQ5 DNA dye (BioStatus, UK) per well. […] Five images were collected per well for reliable statistical analysis. Automated image analysis was performed with a script developed on Acapella High Content Imaging and Analysis Software (PerkinElmer). Output: number of amastigotes per cell as infection level measurement.; format: functional, organism-based, Rattus norvegicus; conditions: H9c2, 4 h
Trypanosoma cruzi [4] = test: as §1, with “H2C9” for “Trypanosoma cruzi”, “H9c2 Host Cardiomyocytes.” for “Infected Cells.”, “Number” for “percentage”, “H9c2 Host Cardiomyocytes nuclei to determine drug-related cytotoxicity.” for “infected cells per well as a second infection marker.”; format: functional, organism-based, Rattus norvegicus; conditions: H9c2, 4 h
Leishmania donovani [5] = test: GSK_TCAKS: pIC50 Leishmania donovani viability assay using fluorescence intensity. Assay plates (1536-well) were prepared by adding 30nL per well of compound. For single shot assay, the final compound concentration was 5uM. […] Briefly, eGFP LdBOB axenic amastigotes were harvested, fixed and counted in a CASY cell counter (Roche-Applied Science). A final concentration of 1.5 * 10^5 cells per well were prepared in amastigote media containing 500 U/mL penicillin/streptomycin (Invitrogen) and 6uL was dispensed to each experimental well using a Multidrop Combi dispenser (Thermo Scientific). 6uL of assay media was dispensed to control columns used as reference for 100% compound response. Following incubation for 72 h at 37C, 5% CO2, 2 uL of resazurin was added to each well at a final concentration of 0.5 mM in phosphate buffered saline (PBS) with IGEPAL (Sigma-Aldrich), 0.05% (v/v).; format: functional, organism-based
Leishmania donovani [6] = test: (§2) GSK_TCAKS: pIC50 Leishmania donovani Imaging: Infected Macrophages. Assay plates (384-well) were prepared by adding 250nL of compound to each well. For single shot assay, the final compound concentration was 5 uM. […] Automated image analysis was performed with a script developed on Acapella High Content Imaging and Analysis Software (PerkinElmer). Output: Percent of infected macrophage cells were reported for each well.; format: functional, organism-based, Homo sapiens; conditions: THP-1
Leishmania donovani [7] = test: as §2, with “Amastigotes/Macrophages.” for “Infected Macrophages.”, “Average number” for “Percent”, “amastigotes per” for “infected”, “cell” for “cells”; format: functional, organism-based, Homo sapiens; conditions: THP-1
Leishmania donovani [8] = test: as §2, with “THP-1 Host” for “Infected”, “THP-1 cell count” for “Percent of infected macrophage cells”; format: functional, organism-based, Homo sapiens
[9] = test system: Trypanosoma brucei brucei; test: GSK_TCAKS: pIC50 Trypanosoma brucei viability assay using fluorescence intensity. Assay plates (1536-well) were prepared by dispensing 25nL of compound solution per well using an Echo acoustic dispenser (Labcyte).; format: functional, organism-based; conditions: Lister 427, 2 h
[10] = test system: Trypanosoma brucei brucei; test: GSK_TCAKS: pIC50 Trypanosoma brucei viability assay using luminiscence. Assay plates (1536-well) were prepared. T. brucei cultures were harvested and counted in a CASY cell counter. A parasite suspension was prepared at a final concentration of 5 * 10^4 cells/mL in complete HMI9 medium and 6uL was dispensed to all wells containing compounds using a Multidrop Combi dispenser. 6uL of HMI9 media with 0.4% DMSO were dispensed to control columns. Plates were incubated for 24 h at 37C, 5% CO2 then tempered for 10 min at room temperature. ATP content was quantified by adding 4 uL of CellTiter-Glo Reagent (Promega) according to the manufacturer's instructions. Luminescence was measured using a ViewLux.; format: functional, organism-based; conditions: Lister 427, CASY
[11] = GSK_TCAKS: pIC50 HepG2 human cell line viability assay using luminiscence. […] Seeding density was checked to ensure that new mono-layers were not more than 50% confluent at the time of harvesting. Cell suspension was added to 500 mL of the same medium at a final density of 1.2 * 10^5 cells/mL. This cell suspension was dispensed (25 uL, 3000 cells per well) into 384-well clear-bottom plates using a Multidrop Combi dispenser. Prior to addition of the cell suspension, the screening compounds (250 nL) were pre-dispensed into the plates with an Echo liquid handler. Plates were incubated for 48 h at 37C, 5% CO2. After incubation, plates equilibrated at room temperature for 30 min before proceeding to develop the luminescent signal. The signal developer, CellTiter-Glo Reagent, was allowed to equilibrate at room temperature for 30 min and added to the plates (25uL per well) using a Multidrop Combi dispenser. Plates were left for 10 min at room temperature for stabilization and then read using a ViewLux.; format: toxicity, cell-based
[12] = target: Sterol 14-alpha demethylase (Trypanosoma cruzi (strain CL Brener), UniProt Q7Z1V1); test: GSK_TCAKS: pIC50 CYP51 from Trypanosoma cruzi.; format: functional
Sterol 14-alpha demethylase, sequence (Q7Z1V1 whole entry): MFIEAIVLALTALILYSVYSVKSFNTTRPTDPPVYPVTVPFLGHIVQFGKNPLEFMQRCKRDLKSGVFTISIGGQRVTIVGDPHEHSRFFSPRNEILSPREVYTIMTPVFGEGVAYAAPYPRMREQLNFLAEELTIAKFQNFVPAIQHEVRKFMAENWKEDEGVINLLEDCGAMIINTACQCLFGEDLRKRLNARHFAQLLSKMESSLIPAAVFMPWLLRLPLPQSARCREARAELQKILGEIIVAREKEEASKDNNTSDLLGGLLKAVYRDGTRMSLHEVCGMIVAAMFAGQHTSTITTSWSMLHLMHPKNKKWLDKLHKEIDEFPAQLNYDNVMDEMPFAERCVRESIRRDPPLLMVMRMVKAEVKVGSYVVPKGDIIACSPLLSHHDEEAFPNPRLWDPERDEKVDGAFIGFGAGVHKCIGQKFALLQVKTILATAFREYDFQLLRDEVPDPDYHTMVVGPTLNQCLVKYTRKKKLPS

Row | Compound | IC50 (Trypanosoma cruzi [1]) [µM] | IC50 (Trypanosoma cruzi [2]) [µM] | IC50 (Trypanosoma cruzi [3]) [µM] | IC50 (Trypanosoma cruzi [4]) [µM] | IC50 (Leishmania donovani [5]) [µM] | IC50 (Leishmania donovani [6]) [µM] | IC50 (Leishmania donovani [7]) [µM] | IC50 (Leishmania donovani [8]) [µM] | IC50 [9] [µM] | IC50 [10] [µM] | IC50 at 48 h [11] [µM] | IC50 [12] [µM]
1 | NCc1csc(Nc2cc(Oc3ccccc3)ncn2)n1 | 31.6 | 25.1 | 31.6 | > 50.1 | > 50.1 | 25.1 | 25.1 | > 50.1 | 0.631 | 0.794 | > 100 | 0.316
2 | CC(C)Nc1nc(Cl)nc2ccccc12 | 3.98 | 10 | 3.98 | 7.94 | 20 | 2.51 | 1.26 | 20 | 5.01 | 12.6 | 39.8 | > 100
3 | Cc1cc2nc(CN(C)Cc3ncccc3C)[nH]c2cc1C | 0.501 | 1 | 0.501 | 12.6 | 5.01 | 0.631 | 0.501 | 7.94 | 0.631 | 0.631 | 39.8 | 79.4
4 | CC(C)(C)CC(=O)NCc1noc(COc2ccccc2)n1 | 2.82 | 2.51 | 2.51 | > 50.1 | > 50.1 | > 50.1 | > 50.1 | > 50.1 | 0.631 | 0.794 | > 100 | 50.1
5 | O=C(Cn1cnc2c(-c3ccccc3)csc2c1=O)N1CCCCC1 | 3.55 | 3.98 | 3.16 | > 50.1 | > 50.1 | > 50.1 | > 50.1 | > 50.1 | 0.794 | 1 | > 100 | 39.8
6 | CN(CCOc1ccc(Cl)cc1)Cc1nc(N)nc(N(C)C)n1 | 5.01 | 10 | 7.94 | > 50.1 | 15.8 | 7.94 | 5.01 | > 50.1 | 25.1 | 15.8 | > 100 | 31.6
7 | Cc1cc(=O)n2nc(Oc3ccc(C#N)cc3Cl)sc2n1 | 15.8 | 31.6 | 25.1 | 31.6 | 12.6 | 31.6 | 31.6 | 31.6 | 0.631 | 0.316 | 39.8 | > 100
8 | O=C(c1ccc(O)c(Cl)c1)N1CCN(c2cnccn2)CC1 | > 50.1 | > 50.1 | 10 | > 50.1 | 0.316 | 5.01 | 3.16 | > 50.1 | > 39.8 | > 39.8 | > 100 | > 100
9 | O=C1CN(Cc2ccco2)C2CS(=O)(=O)CC2N1c1ccc(Cl)cc1 (stereo unspecified) | > 50.1 | > 50.1 | > 50.1 | > 50.1 | > 50.1 | > 50.1 | > 50.1 | > 50.1 | 0.316 | 0.251 | > 100 | > 100
10 | Cc1nc(-c2ccncc2)ncc1C(C)NC(=O)c1ccc(Cl)s1 (stereo unspecified) | 25.1 | 31.6 | 20 | > 50.1 | > 50.1 | > 50.1 | > 50.1 | > 50.1 | 1 | 1 | > 100 | 0.794
11 | Cn1nc(C(=O)N2CCc3ccccc32)c2c1CCS(=O)(=O)C2 | 7.94 | 12.6 | 7.94 | > 50.1 | 3.98 | 3.98 | 1.58 | > 50.1 | 3.98 | 6.31 | > 100 | > 100
12 | CCc1nn(-c2ncc(F)c(NC(C)C)n2)c(N)c1C1CCCCC1 | 3.55 | 3.16 | 1.58 | 1 | 3.16 | 3.16 | 1.58 | 15.8 | 10 | 15.8 | 31.6 | > 100
13 | C[C@@H](Oc1cc(-n2cnc3cc(N)ccc32)sc1C(N)=O)c1ccccc1Cl | 1.26 | 20 | 5.01 | 1 | 3.16 | 31.6 | 20 | 25.1 | 0.251 | 0.794 | 20 | 3.16
14 | O=C(NCc1nnc2n1CCCCC2)c1csc(-c2ccccc2)n1 | 2.51 | 2 | 2 | > 50.1 | > 50.1 | > 50.1 | > 50.1 | > 50.1 | 0.316 | 0.398 | > 100 | > 100
15 | Cc1nc2c(-c3nc(-c4ccccc4N)n[nH]3)cccn2c1C | 4.47 | 2.51 | 1.58 | 5.01 | 6.31 | 1.58 | 1 | 7.94 | 1 | 2.51 | 15.8 | 3.16
16 | Cc1nc2c(-c3nc(-c4ccc(N)cc4)n[nH]3)cccn2c1C | 6.31 | > 50.1 | > 50.1 | 10 | 3.16 | 2 | 1.58 | 12.6 | 12.6 | 25.1 | 15.8 | > 100
17 | OC[C@@H](Nc1nccc(-c2c(-c3ccc(F)cc3)ncn2C2CCNCC2)n1)c1ccccc1 | 31.6 | 12.6 | 12.6 | 2 | > 50.1 | 31.6 | 31.6 | 31.6 | 0.398 | 0.631 | 100 | 25.1
18 | Cc1ccc2onc(Nc3ccnc(Nc4cccc(S(C)(=O)=O)c4)n3)c2c1 | 3.98 | 0.631 | 0.398 | 5.01 | 5.01 | 2 | 1 | 20 | 6.31 | 7.94 | 50.1 | 39.8
